{"source": "patent US12453696B2", "about": "“Active principle comprising a particular extract of Punica granatum and uses for preventing and/or treating acne” (priority 2020, dated 2025)", "tested_on": "C. acnes", "assay": "Antibacterial activity: inhibition diameter of growth of C. acnes", "format": "cell-based, Cutibacterium acnes", "conditions": "for Inhibition diameter (cm): C. acnes", "source_text": "In addition, the antibacterial activity (C. acnes) of these three products was compared according to the method described later in the present application. The inhibition diameter is proportional to the antibacterial efficacy of the product tested.\nThe results concerning the antibacterial effect of the active ingredient according to the invention compared to those of punicalagin, the main compound of the polyphenols present in the fruit of the pomegranate, are presented in Table 6."}
{"smiles": "O=C1O[C@H]2[C@@H]3OC(=O)c4cc(O)c(O)c(O)c4-c4c(O)c(O)c5oc(=O)c6c(c(O)c(O)c7oc(=O)c4c5c76)-c4c(cc(O)c(O)c4O)C(=O)OC[C@H]3OC(O)[C@@H]2OC(=O)c2cc(O)c(O)c(O)c2-c2c1cc(O)c(O)c2O", "note": "(mixture of isomers) [Punicalagin]", "values": [{"measurement": "antibacterial activity on growth of C. acnes (in words)", "value": "has an antibacterial effect on the growth of C. acnes"}, {"measurement": "Inhibition diameter (cm)", "setting": "Deposit 15 μl", "value": "1.1 ± 0.1", "unit": "cm"}, {"measurement": "Inhibition diameter (cm)", "setting": "Deposit 30 μl", "value": "1.4 ± 0.1", "unit": "cm"}]}
